The test system of test [1] is KL LJE1 cells. Put plainly: Western blot and qRT-PCR of FGFR1, NKX2-1 and ERK phosphorylation in drug-treated KL LJE1 cells. It is filed as cell-based, mouse. The protocol:
(§1) All cell lines were incubated at 37° C. and were maintained in an atmosphere containing 5% CO2. Cells were tested for Mycoplasma (Lonza) using manufacturer's conditions and were deemed negative. Cells were grown in Dulbecco's modified Eagles medium (DMEM) plus 10% fetal bovine serum (Gibco) and were continuously maintained under antibiotic selection for stable cell lines. Proliferation assays were performed by plating 2×10^3 cells per well of a 6-well plate, and cells were counted 5 days post-plating. Drug treatments were carried out using the following doses: entinostat 1 uM or 2 uM, RGFP966 10uM, TSA 0.5 uM, BRD3308 5 uM, trametinib 5 nM, 10 nM, and 25 nM, and MRTX1133 10 nM, 25 nM, and 50 nM, as indicated for the indicated treatment lengths. Media was changed and fresh drug added every 2 days.
(§2) mRNA was prepared using the Quick-RNA Miniprep kit (Zymo Research), including DNase treatment. cDNA was synthesized from 2 μg of RNA using SuperScript III (Life Technologies), and qPCR was carried out with diluted cDNA, appropriate primers, and SYBR Green PCR master mix (ThermoFisher Scientific) using a C1000 Thermal Cycler (BioRad). Relative mRNA levels were calculated using the delta Ct method, using Tbp as an internal control.
(§3) Protein lysates in CST buffer (20 mM Tris pH 7.5, 150 mM NaCl, 1% Triton X-100, 50 mM NaF, 1 mM EDTA, 1 mM EGTA, 2.5 mM PyroPhosphate, 2 mM beta-glycerol-phosphate, 1 mM orthovanadate, 0.01 mM Calyculan A) with protease inhibitors were equilibrated for protein levels using a BCA protein assay kit (Pierce), resolved on 8% SDS-PAGE gels, and transferred to membrane. Membranes were blocked in milk, incubated o/n at 4C in diluted primary antibody, washed with TBS-T, incubated 1 hr in secondary antibody diluted in TBS-T plus milk, washed in TBS-T, and developed using SuperSignal ECL. Secondary antibodies: anti-rabbit (Millipore AP132P) and anti-mouse (Millipore AP124P). Nuclear fractions were isolated using a NE-PER nuclear and cytoplasmic extraction kit (Thermofisher) under manufacturers conditions.
(In general: A western blot detects proteins with antibodies after separation by electrophoresis.)

The subject of another test is human lung cancer cells. Put plainly: FGFR1 resistance mechanism in human lung cancer cells. The test is classed as cell-based. The following applies: 6 days of treatment.
Test [2] deals with KL LJE1 cells. Nature of the test: qRT-PCR of chemokine (HRCG) gene expression in KL LJE1 cells. The test is classed as cell-based, mouse. On the procedure: as §1, §2
For orientation: Real-time PCR tracks product formation cycle by cycle.

The subject of the next test is NF-kB/p65 protein. Nature of the test: Western blot of p65 nuclear localisation and K310 acetylation in KL LJE1 cells. It is filed as cell-based, mouse. The following applies: for quantity of p65 protein in the nuclear fraction: Western blot, 6 hr, 2 uM entinostat, 10uM RGFP966, 0.5 uM TSA. The protocol:
as §3
p65-expressing DNA constructs RelA-Flag (22) (Addgene 20012) and GFP-RelA (21) (Addgene 23255) were transiently transfected into KL LJE1 cells using Lipofectamine 2000 (Thermo Fisher Scientific) according to the manufacturer's protocol. Cells were treated with drug as indicated 24 hours after transfection.

Test [3] has as its system KL LJE1 cells. Put plainly: RNA-seq of drug-treated KL LJE1 cells (TIER genes). The test is classed as cell-based, mouse. As to conditions: adj. p-value<0.05, 10 nM trametinib. On the procedure:
All cell lines were incubated at 37° C. and were maintained in an atmosphere containing 5% CO2. Cells were tested for Mycoplasma (Lonza) using manufacturer's conditions and were deemed negative. Cells were grown in Dulbecco's modified Eagles medium (DMEM) plus 10% fetal bovine serum (Gibco) and were continuously maintained under antibiotic selection for stable cell lines. Proliferation assays were performed by plating 2×10^3 cells per well of a 6-well plate, and cells were counted 5 days post-plating. […]
mRNA was collected from cells harvested within 2 passages post-thaw. mRNA was isolated using the Quick-RNA Miniprep kit (Zymo Research), including DNase treatment. RNA integrity (RIN) numbers were determined using the Agilent TapeStation prior to library preparation. mRNA-seq libraries were prepared using the TruSeq RNA library preparation kit (version 2), according to the manufacturer's instructions (Illumina). Libraries were quantified, pooled, and sequenced by single-end 50 base pairs using the Illumina HiSeq 2500 platform at the Salk Next-Generation Sequencing Core. […]
Sequenced reads were quality-tested using the online FASTQC tool (bioinformatics.babraham.ac.uk/projects/fastqc) and aligned to the mouse mm10 genome using the STAR aligner version 2.4.0k (Ref. 81; incorporated by reference in its entirety). […]

Another test concerns H460 cells. Nature of the test: qRT-PCR of chemokine gene expression in H460 cells. The test is classed as cell-based, human. The following applies: 1 uM entinostat 4 days, 5 uM BRD3308 4 days. On the procedure:
as §1, §2

Another test deals with A549 cells. Put plainly: qRT-PCR of chemokine gene expression in A549 cells. It is filed as cell-based, human. As to conditions: 2 uM entinostat 3 days, 5 uM BRD3308 4 days. On the procedure:
as §1, §2

[4] abbreviates: HDAC3 KO cells, 5 days, MRTX1133 10, 25, or 50 nM, trametinib 5, 10, or 25 nM.

On to `C#Cc1c(F)ccc2cc(O)cc(-c3ncc4c(N5CC6CCC(C5)N6)nc(OC[C@@]56CCCN5C[C@H](F)C6)nc4c3F)c12` [MRTX1133], for which the FGFR1 resistance mechanism result is “induces the FGFR1 resistance mechanism in an HDAC3-dependent manner” in the test with KL LJE1 cells [1] (1 day of treatment), “induces the FGFR1 resistance mechanism in an HDAC3-dependent manner” with KL LJE1 cells [1] (5 days of treatment) and “induces the FGFR1 resistance mechanism” in the test with human lung cancer cells. Moreover, in the test on KL LJE1 cells [1] (Western blot, 24 hr, 10 nM, 25 nM or 50 nM MRTX1133), the “ERK phosphorylation at Thr202/Tyr204” value was “on-target Kras inhibition”. Further, the “HRCG expression, drug alone (NT cells)” value in the test with KL LJE1 cells [2] (5 days, MRTX1133 10, 25, or 50 nM) is on record as “did not impact the expression of these genes”. Further, the “HDAC3 KO-dependent induction of immunosuppressive HRCGs (Cxc15, Cxc1, Cxc12, Cxc13)” value in the test with KL LJE1 cells [2] (setting [4]) was “reversed the HDAC3-dependent induction”. Moreover, the “HDAC3 KO-dependent induction of immunosurveillance-related HRCGs (Cc15, Cxc110)” value in the test with KL LJE1 cells [2] (setting [4]) is “expression was maintained in the presence of MRTX1133”.

Regarding `Nc1cc(F)ccc1NC(=O)/C=C/c1cnn(C/C=C/c2ccccc2)c1` [RGFP966], in the test with KL LJE1 cells [2] (72 hr, 2 uM entinostat or 10uM RGFP966), the “chemokine (SASP) gene expression” value is “robust induction of gene expression”. For the same compound, the “quantity of p65 protein in the nuclear fraction” value with NF-kB/p65 protein is recorded as “increased the quantity of p65 protein in the nuclear fraction”.

Turning to `CC(/C=C/C(=O)NO)=C\[C@@H](C)C(=O)c1ccc(N(C)C)cc1` [TSA, trichostatin a], the “quantity of p65 protein in the nuclear fraction” value with NF-kB/p65 protein was “increased the quantity of p65 protein in the nuclear fraction”.

For the compound `CC(=O)Nc1cccc(-n2c(=O)n(C3CC3)c(=O)c3c(Nc4ccc(I)cc4F)n(C)c(=O)c(C)c32)c1` [trametinib], the “genes upregulated upon 13 day trametinib compared to vehicle” value with KL LJE1 cells [3] was 2,141 genes.

Consider `CC(=O)Nc1ccc(C(=O)Nc2ccc(F)cc2N)cc1` [BRD3308], for which the “chemokine (SASP) gene expression” value in the test with H460 cells and in the test with A549 cells was “induced the expression of these genes” throughout. Further, the “gene expression induction in NT versus p65 KO cells” value with KL LJE1 cells [2] (3 days, 1 uM entinostat or 5 uM BRD3308) is reported as “p65 facilitates maximal gene expression induction”. The “acetylation of wildtype p65 at K310 (versus K310A mutant)” value in the test with NF-kB/p65 protein (5 hours, 1 uM entinostat or 5 uM BRD3308) is “induce acetylation of wildtype p65 at K310”.

For the origin of these results see patent US20240398814A1, “KRAS INHIBITOR AND HDAC INHIBITOR COMBINATION FOR THE TREATMENT OF CANCER” (Northwestern University, priority 2023, published 2024).
